Among the data in patent US8129366B2, “VLA-4 inhibitory drug” (Daiichi Sankyo Company, Limited, priority 2005, dated 2012) are solubility, Ki and IC50 values, retold here.

Structures are written as SMILES. ≈ marks a conversion by molar mass, not a printed value.

Data set [1] is described as follows: Solubility test in first and second liquid of the Japanese Pharmacopoeia. The conditions noted are these: Solubility.
Method: The solubilities of the substance under test in the first liquid (JP1, pH=1.2) of the Japanese Pharmacopoeia and the second liquid (JP2, pH=6.8) of the Japanese Pharmacopoeia, were evaluated.
For another data set, the target named is T1, hα4 and β1 integrins (Homo sapiens, UniProt P05556+P13612).
T1 construct: expressed in transfected cells; host or cells: CHO cells
T1 sequence (P13612 34-1032): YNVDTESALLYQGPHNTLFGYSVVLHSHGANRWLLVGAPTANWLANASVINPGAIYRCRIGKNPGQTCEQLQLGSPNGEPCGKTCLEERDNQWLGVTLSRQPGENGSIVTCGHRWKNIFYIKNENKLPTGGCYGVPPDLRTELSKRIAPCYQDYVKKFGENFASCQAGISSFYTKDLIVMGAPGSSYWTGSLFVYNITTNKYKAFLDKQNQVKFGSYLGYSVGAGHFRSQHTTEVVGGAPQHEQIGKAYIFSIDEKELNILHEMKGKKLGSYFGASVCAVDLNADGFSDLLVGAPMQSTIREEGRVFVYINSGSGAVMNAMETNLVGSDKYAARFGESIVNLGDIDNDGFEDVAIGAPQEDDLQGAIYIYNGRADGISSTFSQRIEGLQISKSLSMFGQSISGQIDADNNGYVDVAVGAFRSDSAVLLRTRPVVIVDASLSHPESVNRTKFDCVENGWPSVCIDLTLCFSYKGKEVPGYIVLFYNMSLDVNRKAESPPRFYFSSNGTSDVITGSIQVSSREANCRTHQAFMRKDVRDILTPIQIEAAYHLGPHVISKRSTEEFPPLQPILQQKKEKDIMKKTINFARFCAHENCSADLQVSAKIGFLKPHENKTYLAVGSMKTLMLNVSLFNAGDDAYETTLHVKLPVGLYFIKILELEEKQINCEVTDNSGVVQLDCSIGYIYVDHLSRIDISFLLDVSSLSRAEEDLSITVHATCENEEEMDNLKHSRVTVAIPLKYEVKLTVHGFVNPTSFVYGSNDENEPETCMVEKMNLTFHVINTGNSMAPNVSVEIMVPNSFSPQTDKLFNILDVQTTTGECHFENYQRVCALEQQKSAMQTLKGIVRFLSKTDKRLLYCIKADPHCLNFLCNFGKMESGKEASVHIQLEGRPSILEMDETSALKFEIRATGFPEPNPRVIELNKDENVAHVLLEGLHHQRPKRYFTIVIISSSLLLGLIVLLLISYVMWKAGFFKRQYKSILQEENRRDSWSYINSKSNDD
T1 sequence (P05556 21-798): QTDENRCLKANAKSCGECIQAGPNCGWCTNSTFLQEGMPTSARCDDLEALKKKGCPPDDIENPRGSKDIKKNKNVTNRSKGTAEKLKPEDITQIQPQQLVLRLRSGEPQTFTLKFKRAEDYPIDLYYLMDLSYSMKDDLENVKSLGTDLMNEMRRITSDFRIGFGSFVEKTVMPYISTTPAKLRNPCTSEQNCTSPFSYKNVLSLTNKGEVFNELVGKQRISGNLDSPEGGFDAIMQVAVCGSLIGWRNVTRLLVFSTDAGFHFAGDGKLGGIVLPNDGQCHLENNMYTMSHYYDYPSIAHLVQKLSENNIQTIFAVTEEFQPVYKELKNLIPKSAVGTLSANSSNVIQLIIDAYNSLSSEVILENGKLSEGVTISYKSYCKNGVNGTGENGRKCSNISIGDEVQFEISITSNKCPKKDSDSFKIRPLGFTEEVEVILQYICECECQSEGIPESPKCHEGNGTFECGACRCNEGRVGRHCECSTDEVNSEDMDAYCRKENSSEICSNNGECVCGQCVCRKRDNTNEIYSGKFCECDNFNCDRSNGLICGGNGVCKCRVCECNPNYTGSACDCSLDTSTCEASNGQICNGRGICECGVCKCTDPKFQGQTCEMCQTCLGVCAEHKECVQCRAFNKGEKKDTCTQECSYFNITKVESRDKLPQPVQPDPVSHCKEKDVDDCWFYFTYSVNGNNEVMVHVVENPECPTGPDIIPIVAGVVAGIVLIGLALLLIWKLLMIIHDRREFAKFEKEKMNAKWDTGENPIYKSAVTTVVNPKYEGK
Put plainly: In vitro inhibition of binding between CHO cells expressing hα4 and β1 integrins and Eu3+-hVCAM-1 D1D7-IgG. The note with it: for Ki: CHO cells expressing hα4 and β1 integrins, Eu3+-hVCAM-1 D1D7-IgG ligand, without HSA; for IC50: in the presence of 3% human serum albumin (HSA final concentration 3%). The method in brief:
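Bound europium-labelled VCAM-1 D1D7-IgG on α4β1-expressing CHO cells was measured by time-resolved fluorescence after washing at 4 °C. Ligand (2 nM working dilution) and test compound, with or without 3% final HSA, were co-incubated for 1 h at room temperature in Mn²⁺-containing HEPES buffer, pH 7.5. IC50 came from % binding inhibition; Ki was calculated from ligand concentration and Scatchard Kd.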

Setting [2] is: first liquid of the Japanese Pharmacopoeia (JP1), pH 1.2, simulated gastric fluid, First liquid of Japanese Pharmacopoeia (μg/mL), JP1, pH=1.2.
[3] abbreviates: second liquid of the Japanese Pharmacopoeia (JP2), pH 6.8, aqueous buffer, Second liquid of Japanese Pharmacopoeia (μg/mL), JP2, pH=6.8.

Consider `CO[C@@H]1CCCN([C@H]2C[C@@H](CO[C@H]3CC[C@H](C(=O)O)CC3)N(C(=O)Cc3cc(Cl)c(NC(=O)c4csc5ccccc45)cc3F)C2)C1` [Example 106, Trans-4-[1-[[4-[(benzo[b]thiophen-3-ylcarbonyl)amino]-5-chloro-2-fluorophenyl]acetyl]-(4S)-[(3R)-methoxypiperidin-1-yl]-(2S)-pyrrolidinylmethoxy]cyclohexanecarboxylic acid], for which the solubility in data set [1] (setting [2]) is more than 2000 µg/mL. The molecule also yielded a solubility in data set [1] (setting [3]) of 1580 µg/mL (≈ 2310 µM). Further, on hα4 and β1 integrins, the Ki was found to be 1.2 nM and the IC50 was found to be 9.2 nM.

In turn, `O=C(Nc1cc(Cl)c(CC(=O)N2C[C@@H](N3CCCC3)C[C@H]2CO[C@H]2CC[C@H](C(=O)O)CC2)cc1Cl)c1csc2ccccc12` [Example 31, Trans-4-[1-[[4-[(benzo[b]thiophen-3-ylcarbonyl)amino]-2,5-dichlorophenyl]acetyl]-(4S)-(pyrrolidin-1-yl)-(2S)-pyrrolidinylmethoxy]cyclohexanecarboxylic acid] yielded a solubility in data set [1] (setting [2]) of 1840 µg/mL (≈ 2800 µM). For the same molecule, the concentration in solution in data set [1] (setting [3]) (solubility) was 1680 µg/mL (≈ 2560 µM). For the same molecule, on hα4 and β1 integrins, the affinity, expressed as Ki, was 1.2 nM and the IC50 stood at 5.8 nM.

In turn, `Cn1cc(C(=O)Nc2cc(F)c(CC(=O)N3C[C@@H](N4CCOCC4)C[C@H]3CO[C@H]3CC[C@H](C(=O)O)CC3)cc2Cl)c2ccccc21` [Example 78, Trans-4-[1-[[5-chloro-2-fluoro-4-[(1-methyl-1H-indol-3-ylcarbonyl)amino]phenyl]acetyl]-(4S)-(morpholin-4-yl)-(2S)-pyrrolidinylmethoxy]cyclohexanecarboxylic acid] registered a solubility in data set [1] (setting [2]) of more than 2000 µg/mL. The same molecule gave a solubility in data set [1] (setting [3]) of more than 2000 µg/mL. Moreover, at hα4 and β1 integrins, the Ki turned out to be 1.5 nM and the IC50 was determined as 5.2 nM.

In the case of `Cn1cc(C(=O)Nc2cc(F)c(CC(=O)N3C[C@@H](N4CC(C)(C)C4)C[C@H]3CO[C@H]3CC[C@H](C(=O)O)CC3)cc2Cl)c2ccccc21` [Example 14, Trans-4-[1-[[5-chloro-2-fluoro-4-[(1-methyl-1H-indol-3-ylcarbonyl)amino]phenyl]acetyl]-(4S)-(3,3-dimethylazetidin-1-yl)-(2S)-pyrrolidinylmethoxy]cyclohexanecarboxylic acid], the solubility in data set [1] (setting [2]) was 1100 µg/mL (≈ 1680 µM); in data set [1] (setting [3]), 1000 µg/mL (≈ 1530 µM).

As to `Cn1cc(C(=O)Nc2cc(Cl)c(CC(=O)N3C[C@@H](N4CC(C)(C)C4)C[C@H]3CO[C@H]3CC[C@H](C(=O)O)CC3)cc2Cl)c2ccccc21` [Example 15, Trans-4-[1-[[2,5-dichloro-4-[(1-methyl-1H-indol-3-ylcarbonyl)amino]phenyl]acetyl]-(4S)-(3,3-dimethylazetidin-1-yl)-(2S)-pyrrolidinylmethoxy]cyclohexanecarboxylic acid], the solubility in data set [1] (setting [2]) and in data set [1] (setting [3]) was 1100 µg/mL (≈ 1640 µM) each time.

On to `O=C(Nc1cc(F)c(CC(=O)N2C[C@@H](N3CCC(Oc4ccccc4)CC3)C[C@H]2CO[C@H]2CC[C@H](C(=O)O)CC2)cc1Cl)c1csc2ccccc12` [Example 102], for which, at hα4 and β1 integrins, the Ki stood at 1.2 nM and the IC50 worked out at 33 nM.

Regarding `CCN1CCN([C@H]2C[C@@H](CO[C@H]3CC[C@H](C(=O)O)CC3)N(C(=O)Cc3cc(Cl)c(NC(=O)c4csc5ccccc45)cc3F)C2)CC1=O` [Example 154, Trans-4-[1-[[4-[(benzo[b]thiophen-3-ylcarbonyl)amino]-5-chloro-2-fluorophenyl]acetyl]-(4S)-(4-ethyl-3-oxopiperazin-1-yl)-(2S)-pyrrolidinylmethoxy]cyclohexanecarboxylic acid], on hα4 and β1 integrins, the Ki stood at 0.92 nM and the IC50 came out at 9.1 nM.

For `COC[C@H]1CCCN1[C@H]1C[C@@H](CO[C@H]2CC[C@H](C(=O)O)CC2)N(C(=O)Cc2cc(Cl)c(NC(=O)c3csc4ccccc34)cc2F)C1` [Example 44, Trans-4-[1-[[4-[(benzo[b]thiophen-3-ylcarbonyl)amino]-5-chloro-2-fluorophenyl]acetyl]-(4S)-[(2R)-methoxymethylpyrrolidin-1-yl]-(2S)-pyrrolidinylmethoxy]cyclohexanecarboxylic acid], on hα4 and β1 integrins, affinity was put at a Ki of 6.8 nM and the IC50 turned out to be 24 nM.

In the case of `CC(=O)N1CCN([C@H]2C[C@@H](CO[C@H]3CC[C@H](C(=O)O)CC3)N(C(=O)Cc3cc(Cl)c(NC(=O)c4csc5ccccc45)cc3F)C2)CC1` [Example 148, Trans-4-[1-[[4-[(benzo[b]thiophen-3-ylcarbonyl)amino]-5-chloro-2-fluorophenyl]acetyl]-(4S)-(4-acetylpiperazin-1-yl)-(2S)-pyrrolidinylmethoxy]cyclohexanecarboxylic acid], at hα4 and β1 integrins, the Ki was 0.53 nM and the IC50 worked out at 2.8 nM.

Turning to `C[C@@H]1CN([C@H]2C[C@@H](CO[C@H]3CC[C@H](C(=O)O)CC3)N(C(=O)Cc3cc(Cl)c(NC(=O)c4c[nH]c5ccccc45)cc3Cl)C2)C[C@H](C)O1` [Example 89, Trans-4-[1-[[2,5-dichloro-4-[(1H-indol-3-ylcarbonyl)amino]phenyl]acetyl]-(4S)-(cis-2,6-dimethylmorpholin-4-yl)-(2S)-pyrrolidinylmethoxy]cyclohexanecarboxylic acid], at hα4 and β1 integrins, the Ki was 0.96 nM and the IC50 is 2.3 nM.

`Cn1cc(C(=O)Nc2cc(Cl)c(CC(=O)N3C[C@@H](N4CCN(C(C)(C)CF)CC4)C[C@H]3CO[C@H]3CC[C@H](C(=O)O)CC3)cc2Cl)c2ccccc21` [Example 119, Trans-4-[1-[[2,5-dichloro-4-[(1-methyl-1H-indol-3-ylcarbonyl)amino]phenyl]acetyl]-(4S)-[4-(1,1-dimethyl-2-fluoroethyl)piperazin-1-yl]-(2S)-pyrrolidinylmethoxy]cyclohexanecarboxylic acid]: at hα4 and β1 integrins, the Ki turned out to be 4.5 nM and the IC50 came to 20 nM.

Take `Cn1cc(C(=O)Nc2cc(F)c(CC(=O)N3C[C@@H](N4CCN(c5ccncc5)CC4)C[C@H]3CO[C@H]3CC[C@H](C(=O)O)CC3)cc2Cl)c2ccccc21` [Example 145, Trans-4-[1-[[5-chloro-2-fluoro-4-[(1-methyl-1H-indol-3-ylcarbonyl)amino]phenyl]acetyl]-(4S)-[4-(4-pyridyl)piperazin-1-yl]-(2S)-pyrrolidinylmethoxy]cyclohexanecarboxylic acid]: on hα4 and β1 integrins, the affinity, expressed as Ki, was 3.9 nM and the IC50 turned out to be 11 nM.

In the case of `O=C(Nc1cc(Cl)c(CC(=O)N2C[C@@H](N3CCN(C4CC4)CC3)C[C@H]2CO[C@H]2CC[C@H](C(=O)O)CC2)cc1Cl)c1coc2ccccc12` [Example 140], at hα4 and β1 integrins, the Ki came to 1.8 nM and the IC50 turned out to be 7.6 nM.

On to `COCCN1CCN([C@H]2C[C@@H](CO[C@H]3CC[C@H](C(=O)O)CC3)N(C(=O)Cc3cc(Cl)c(NC(=O)c4cn(C)c5ccccc45)cc3Cl)C2)CC1` [Example 137, Trans-4-[1-[[2,5-dichloro-4-[(1-methyl-1H-indol-3-ylcarbonyl)amino]phenyl]acetyl]-(4S)-(4-(2-methoxyethyl)piperazin-1-yl)-(2S)-pyrrolidinylmethoxy]cyclohexanecarboxylic acid], for which, on hα4 and β1 integrins, the Ki was determined as 2.9 nM and the IC50 is 8.7 nM.

Regarding `CO[C@H]1CN([C@H]2C[C@@H](CO[C@H]3CC[C@H](C(=O)O)CC3)N(C(=O)Cc3cc(Cl)c(NC(=O)c4cn(C)c5ccccc45)cc3Cl)C2)C[C@H]1OC` [Example 56, Trans-4-[1-[[2,5-dichloro-4-[(1-methyl-1H-indol-3-ylcarbonyl)amino]phenyl]acetyl]-(4S)-(cis-3,4-dimethoxypyrrolidin-1-yl)-(2S)-pyrrolidinylmethoxy]cyclohexanecarboxylic acid], at hα4 and β1 integrins, the Ki was determined as 2.4 nM and the IC50 stood at 9.2 nM.

`O=C(Nc1ccc(CC(=O)N2C[C@@H](N3CCN(CC(F)(F)F)CC3)C[C@H]2CO[C@H]2CC[C@H](C(=O)O)CC2)cc1Cl)c1csc2ccccc12` [Example 134, Trans-4-[1-[[4-[(benzo[b]thiophen-3-ylcarbonyl)amino]-3-chlorophenyl]acetyl]-(4S)-[4-(2,2,2-trifluoroethyl)piperazin-1-yl]-(2S)-pyrrolidinylmethoxy]cyclohexanecarboxylic acid]: at hα4 and β1 integrins, the Ki turned out to be 1.2 nM and the IC50 is 6.8 nM.

As to `O=C(Nc1cc(F)c(CC(=O)N2C[C@@H](N3C[C@H]4C[C@H]4C3)C[C@H]2CO[C@H]2CC[C@H](C(=O)O)CC2)cc1Cl)c1csc2ccccc12` [Example 71, Trans-4-[1-[[4-[(benzo[b]thiophen-3-ylcarbonyl)amino]-5-chloro-2-fluorophenyl]acetyl]-(4S)-[3-azabicyclo[3.1.0]hexan-3-yl]-(2S)-pyrrolidinylmethoxy]cyclohexanecarboxylic acid], on hα4 and β1 integrins, the Ki was 7.5 nM and the IC50 was found to be 28 nM.

For the molecule `CS(=O)(=O)N1CCN([C@H]2C[C@@H](CO[C@H]3CC[C@H](C(=O)O)CC3)N(C(=O)Cc3cc(Cl)c(NC(=O)c4coc5ccccc45)cc3F)C2)CC1` [Example 150, Trans-4-[1-[[4-[(benzo[b]furan-3-ylcarbonyl)amino]-5-chloro-2-fluorophenyl]acetyl]-(4S)-(4-methanesulfonylpiperazin-1-yl)-(2S)-pyrrolidinylmethoxy]cyclohexanecarboxylic acid], on hα4 and β1 integrins, the Ki stood at 1.6 nM and the IC50 was determined as 6.8 nM.

In the case of `Cn1cc(C(=O)Nc2cc(F)c(CC(=O)N3C[C@@H](N4CC5CC4CO5)C[C@H]3CO[C@H]3CC[C@H](C(=O)O)CC3)cc2Cl)c2ccccc21` (stereo partly drawn) [Example 163, Trans-4-[1-[[5-chloro-2-fluoro-4-[(1-methyl-1H-indol-3-ylcarbonyl)amino]phenyl]acetyl]-(4S)-[(1S,4S)-2-oxa-5-azabicyclo[2.2.1]heptan-5-yl]-(2S)-pyrrolidinylmethoxy]cyclohexanecarboxylic acid], at hα4 and β1 integrins, the Ki amounted to 6.4 nM and the IC50 amounted to 36 nM.
